A word on the solubility: it is how much of the substance goes into solution per volume. The low end stands for a poorly soluble substance, the high end for a readily soluble substance.

SMILES strings stand for the structures. ≈ marks a conversion by molar mass, not a printed value.

This series can be described thus: physchem. Conditions: for solubility: water. On the procedure:
The lipophilic matrix may consist of a single substance, e.g. a lipid, or of a mixture of substances, e.g. a mixture of lipids. In the case of mixtures, the DAB 10 water-solubility properties, the partition coefficients and the HLB values specified below are calculated from the arithmetic mean of the corresponding values of the substances and from their amounts in parts by weight. The substances used here must not be toxic.
The water-solubility of the active substance and the substance or substances forming the lipophilic matrix can be defined as described in DAD 10 German Pharmacopeia 10th ed. with 3rd suppl. 1994, published by Deutscher Apothekerverlag [=German Pharmacologic Publishing House], Stuttgart and by Govi Verlag, Frankfurt am Main, 2nd suppl. 1993, see Section IV “Allgemeine Vorschriften” [=General Methods] on pages 5 and 6, entitled “Löslichkeit und Lösungsmittell” [=Solubility and Solvents]; see also Ph. Eur. 4.07, 2004). The solubility is given here by the number of parts by volume of a solvent needed to dissolve 1 part by weight of the substance, such as a drug. “Low solubility” applies to substances that need 30-100 parts by volume of solvent to dissolve 1 part by weight of the substance or drug in question, while the terms “very low solubility”, “sparingly soluble” and “difficultly soluble” apply to substances that need 100-1000 parts by volume of a solvent to dissolve 1 part by weight of the substance or drug in question.

Consider `NC(=O)N1c2ccccc2CC(=O)c2ccccc21` [Oxcarbazepine], for which the “Water solubility according to DAB 10: parts of water needed to dissolve 1 part of the active substance” value is given as “at least 10,000 parts of water” and the solubility was 100 µg/mL (≈ 396 µM).
In the same order, the values of `CN(CCOc1ccc(CC2SC(=O)NC2=O)cc1)c1ccccn1` (stereo not shown) [Rosiglitazone] are “at least 1000 parts of water” and 1000 µg/mL (≈ 2800 µM).

Values taken from patent US8273375B2, “Multiparticle pharmaceutical dosage form for a low-soluble active substances and method for producing said pharmaceutical dosage form” (Evonik Roehm GmbH, priority 2004, dated 2012).
